Structures can show the parent of a compound that is named as a salt.

By IC50 is commonly meant the concentration at which inhibition is half-maximal. As a reminder, the Ki is a measure of affinity in units of concentration, obtained from inhibition or displacement. Low readings indicate a stronger hold on the target, high ones a looser hold on the target. As a reminder, the melting point is the temperature of the solid-liquid transition.

Series [1] concerns the target T1, cloned human 5-HT1A receptors (Homo sapiens, UniProt P08908).
T1 construct: expressed in transfected cells
T1 sequence (P08908 1-422): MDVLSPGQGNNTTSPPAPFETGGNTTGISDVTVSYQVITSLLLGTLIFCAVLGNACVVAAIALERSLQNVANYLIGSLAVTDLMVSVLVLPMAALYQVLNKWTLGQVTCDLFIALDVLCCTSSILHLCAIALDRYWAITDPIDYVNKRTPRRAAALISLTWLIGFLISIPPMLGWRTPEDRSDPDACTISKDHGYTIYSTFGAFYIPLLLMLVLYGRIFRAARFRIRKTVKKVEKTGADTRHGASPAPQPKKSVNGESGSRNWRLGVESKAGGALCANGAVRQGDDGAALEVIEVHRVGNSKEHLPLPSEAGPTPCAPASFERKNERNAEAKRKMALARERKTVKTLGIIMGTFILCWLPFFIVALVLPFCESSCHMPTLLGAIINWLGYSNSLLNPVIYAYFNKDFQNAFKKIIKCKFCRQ
Put plainly: 35S-GTPγS binding assay, antagonist activity at 5-HT1A receptors. It is filed as biochemical. The settings on record: reversal of the effects of the standard agonist 8-OHDPAT; for IC50: read-out: 5-HT1A Function IC50. The protocol:
Antagonist activity at 5-HT1A receptors was established by using a ^35S-GTPγS binding assay similar to that used by Lazareno and Birdsall (Br. J. Pharmacol. 109: 1120, 1993), in which the test compound's ability to affect the binding of ^35S-GTPγS to membranes containing cloned human 5-HT1A receptors was determined. Agonists produce an increase in binding whereas antagonists produce no increase but rather reverse the effects of the standard agonist 8-OHDPAT. The test compound's maximum inhibitory effect is represented as the Imax, while its potency is defined by the IC50.

A further series addresses T2, human 5-HT1A receptors (Homo sapiens, UniProt P08908).
T2 construct: expressed in transfected cells; host or cells: CHO cells, stably transfected
T2 sequence (P08908 1-422): T1 sequence (P08908 1-422)
Put plainly: [3H] 8-OHDPAT displacement from the 5-HT1A receptor in transfected CHO cells. The class given is binding. The source says: High affinity for the serotonin 5-HT1A receptor was established by testing the claimed compound's ability to displace [^3H] 8-OHDPAT (dipropylaminotetralin) from the 5-HT1A serotonin receptor following a modification of the procedure of Hall et al., J. Neurochem. 44, 1685 (1985) which utilizes CHO cells stably transfected with human 5-HT1A receptors.

A further series has as its target T3, serotonin transporter (Rattus norvegicus, UniProt P31652).
T3 construct: displace ^3H-paroxetine from male rat frontal cortical membranes; from tissue; host or cells: male rat frontal cortex membranes
Nature of the series: 3H-paroxetine displacement, affinity for the serotonin transporter. It is filed as binding.

T3 sequence (P31652 whole entry): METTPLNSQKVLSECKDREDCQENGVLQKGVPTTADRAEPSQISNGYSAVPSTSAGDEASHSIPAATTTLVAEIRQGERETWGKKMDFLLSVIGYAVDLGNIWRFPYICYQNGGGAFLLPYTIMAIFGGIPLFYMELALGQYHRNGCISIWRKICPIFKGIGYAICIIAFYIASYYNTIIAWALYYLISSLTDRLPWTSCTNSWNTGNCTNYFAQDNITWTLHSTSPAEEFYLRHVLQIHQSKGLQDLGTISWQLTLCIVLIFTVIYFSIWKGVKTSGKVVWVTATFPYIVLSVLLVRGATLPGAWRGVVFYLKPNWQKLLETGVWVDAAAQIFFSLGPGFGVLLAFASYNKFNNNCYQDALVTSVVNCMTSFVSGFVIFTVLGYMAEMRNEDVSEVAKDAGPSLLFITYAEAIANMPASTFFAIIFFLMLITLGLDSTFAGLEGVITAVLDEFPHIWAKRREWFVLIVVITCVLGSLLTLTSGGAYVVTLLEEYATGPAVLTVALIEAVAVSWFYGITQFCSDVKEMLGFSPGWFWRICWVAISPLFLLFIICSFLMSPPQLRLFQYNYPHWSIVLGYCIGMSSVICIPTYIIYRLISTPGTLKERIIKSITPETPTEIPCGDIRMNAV

Turning to `C1=C(c2c[nH]c3ccccc23)CCN(CC2COc3ccc4ncoc4c3O2)C1` (stereo not shown) [Example 1, 8-[4-(1H-Indol-3-yl)-3,6-dihydro-2H-pyridin-1-ylmethyl]-7,8-dihydro-1,6,9-trioxa-3-aza-cyclopenta[a]naphthalene], the melting point was 223 to 224 °C. In series [1], the “5-HT1A Function Imax (maximum inhibitory effect)” value amounted to 45 and the half-inhibitory concentration (IC50) was 334 nM. This compound also registered a Ki on human 5-HT1A receptors of 10.3 nM. This compound gave an inhibition constant Ki at serotonin transporter of 4 nM.

Compound `Cc1nc2ccc3c(c2o1)OC(CN1CC=C(c2c[nH]c4cc(F)ccc24)CC1)CO3` (stereo not shown) yielded a melting point of 188 to 190 °C.

In the case of `Cc1nc2ccc3c(c2o1)OC(CN1CC=C(c2c[nH]c4ccc(C#N)cc24)CC1)CO3` (stereo not shown) [Example 4, 3-[1-(2-Methyl-7,8-dihydro-1,6,9-trioxa-3-aza-cyclopenta[a]naphthalen-8-ylmethyl)-1,2,3,6-tetrahydro-pyridin-4-yl]-1H-indole-5-carbonitrile], the “5-HT1A Function Imax (maximum inhibitory effect)” value in series [1] stood at 100. Further, in series [1], the IC50 came out at 115 nM. Besides, the Ki at human 5-HT1A receptors stood at 9.56 nM; on serotonin transporter it was 1.68 nM.

For the compound `Cc1nc2ccc3c(c2o1)OC(CN1CC=C(c2c[nH]c4ccc(F)cc24)CC1)CO3` (stereo not shown) [Example 2, 8-[4-(5-Fluoro-1H-indol-3-yl)-3,6-dihydro-2H-pyridin-1-ylmethyl]-2-methyl-7,8-dihydro-1,6,9-trioxa-3-aza-cyclopenta[a]naphthalene], the melting point was 95 °C. Further, in series [1], the “5-HT1A Function Imax (maximum inhibitory effect)” value stood at 100 and the IC50 turned out to be 180 nM. In addition, the affinity at human 5-HT1A receptors, expressed as Ki, was 5.43 nM. In addition, the Ki on serotonin transporter was 2.25 nM.

`Cc1nc2ccc3c(c2o1)OC(CN1CC=C(c2c[nH]c4ccc(C#N)cc24)CC1)CO3` (stereo not shown) (as salt: fumarate) (hydrate or solvate) [Example 4, 3-[1-(2-Methyl-7,8-dihydro-1,6,9-trioxa-3-aza-cyclopenta[a]naphthalen-8-ylmethyl)-1,2,3,6-tetrahydro-pyridin-4-yl]-1H-indole-5-carbonitrile] came in with a melting point of 119 °C.

`Cc1nc2ccc3c(c2o1)OC(CN1CC=C(c2c[nH]c4c(F)cccc24)CC1)CO3` (stereo not shown) registered a melting point of 208 to 210 °C.

In turn, `Cc1nc2ccc3c(c2o1)OC(CN1CC=C(c2c[nH]c4ccccc24)CC1)CO3` (stereo not shown) [Example 3, 8-[4-(1H-Indol-3-yl)-3,6-dihydro-2H-pyridin-1-ylmethyl]-2-methyl-7,8-dihydro-1,6,9-trioxa-3-aza-cyclopenta[a]naphthalene] had a melting point of 196 °C. Besides, in series [1], the “5-HT1A Function Imax (maximum inhibitory effect)” value is 100 and the IC50 was determined as 282 nM. Moreover, at human 5-HT1A receptors, the Ki was 7.56 nM. On serotonin transporter, the affinity corresponds to a Ki of 3.83 nM.

Values taken from US6617334B2, “Antidepressant azaheterocyclylmethyl derivatives of 7,8-dihydro-1,6,9-trioxa-3-aza-cyclopenta[a]naphthalene” (Wyeth, priority 2001, dated 2003).
